Measured values reported in PubChem BioAssay AID1208 (EPA DSSTox, 2008).
Activity calls are given as the source filed them.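 How the source made its calls: active means at least one rat sex group has a carcinogenic potency value and tumor site recorded; inconclusive means only rat studies were judged inadequate by the national testing program; inactive means no potency or tumor site, with negative rat experiments.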

Tested on: rat chronic carcinogenicity bioassay, TD50
Test: DSSTox (CPDBAS) Carcinogenic Potency Database Summary Rat Bioassay Results
Conditions: for Potency: stronger effect = lower value
Text: The Carcinogenic Potency Database (CPDB) is a unique and widely used international resource of the results of over 6500 chronic, long-term animal cancer tests on over 1500 chemical substances. The CPDB provides easy access to the bioassay literature, with qualitative and quantitative analyses of both positive and negative experiments that have been published over the past 50 years in the general literature and by the National Cancer Institute/National Toxicology Program. The CPDB standardizes the diverse literature of cancer bioassays that vary widely in protocol, histopathological examination and nomenclature, and in the published author's choices of what information to provide in their papers. Results are reported in the CPDB for tests in rats, mice, hamsters, dogs, and nonhuman primates, and are based on the most positive result among all experiments for each sex-species. The DSSTox CPDBAS (all species) file incorporates data from the CPDB Summary Tables for the full list of over 1500 chemical substances tested in at least one species. Summary bioassay results for Rat (TD50, tumor sites, male, female, both sexes) are provided in the CPDB Summary Tables and the DSSTox CPDBAS file for over 1200 chemical substances.
TD50 is a standardized quantitative measure of carcinogenic potency (analogous to an LD50) and is reported in the CPDB Summary Table for each species. Activity Score for actives is computed by mapping of LOG10 (1/TD50_Rat_mmol) activity values spanning range [MIN, MAX] onto Integer 1-100 Activity Score range, where 100 is highest potency and 1 is lowest: Activity Score = 100 * INTEGER[(log10(1/Activity) - MIN)/(MAX - MIN)]. If activity is reported but no TD50_Rat_mmol value is computed, such as for a mixture, the Activity Score is assigned the activity value "50". […] Target sites are reported for each sex-species group with a positive result in the CPDB on the basis of a positive author's opinion for the particular site, using all results from both the general literature and NCI/NTP bioassays. If a chemical has two or more target sites listed, the results may be from different experiments, and a single site may be a target organ in more than one experiment, as well. Blank entry in TargetSites field indicates no results reported.

[1] = TargetSites_Rat_Female: no positive results
[2] = TD50_Rat_Note: no positive results, TargetSites_Rat_Female: no positive results
[3] = TD50_Rat_Note: only experiment is NCI/NTP bioassay inadequate, TargetSites_Rat_Female: NTP bioassay inadequate
[4] = TD50_Rat_Note: no positive results, TargetSites_Rat_BothSexes: no positive results
[5] = TD50_Rat_Note: no positive results
[6] = TargetSites_Rat_Female: mammary gland
[7] = TD50_Rat_Note: TD50 is harmonic mean of more than one positive test, TargetSites_Rat_Female: liver

`ClCc1cccnc1` showed a Potency [1] of 433 mg/kg/day.

Molecule `Cc1ccc(C)c(N)c1` has a Potency of 152 mg/kg/day.

With `CC(=O)OCc1ccccc1` the outcome [2] was “inactive; no positive results”.

`O[C@H]([C@H](O)[C@@H](O)CBr)[C@H](O)CBr` showed a Potency (TD50_Rat_Note: positive test results only by intraperitoneal or intravenous injection) of 8.37 mg/kg/day.

In the case of `CC(=O)OC[C@H]1O[C@H](O[C@]2(COC(C)=O)O[C@H](COC(=O)C(C)C)[C@@H](OC(=O)C(C)C)[C@@H]2OC(=O)C(C)C)[C@H](OC(=O)C(C)C)[C@@H](OC(=O)C(C)C)[C@@H]1OC(=O)C(C)C`, the outcome [2] is reported as “inactive; no positive results”.

For `CCN(CC)C(=O)/C(Cl)=C(\C)OP(=O)(OC)OC`, the outcome [3] was “ntp bioassay inadequate”.

For `Cc1cc(O)c2c(c1)C(=O)c1cc(O)cc(O)c1C2=O`, the outcome [2] was “inactive; no positive results”.

`O=CNc1nc(-c2ccc([N+](=O)[O-])o2)cs1` was tested, and the Potency (TD50_Rat_Note: TD50 is harmonic mean of more than one positive test, harmonic mean of TD50 includes a value for upper 99% confidence li, TargetSites_Rat_Female: urinary bladder) was 4.25 mg/kg/day.

With `COc1cc(NC(=O)C(N=Nc2ccc(-c3ccc(N=NC(C(C)=O)C(=O)Nc4cc(OC)c(Cl)cc4OC)c(Cl)c3)cc2Cl)C(C)=O)c(OC)cc1Cl` (centres undefined) the outcome [4] was “inactive”.

With `C=CC(OCC)OCC` the outcome [2] was “inactive; no positive results”.

For `O=[N+]([O-])c1ccc(-c2nc(N3CCOCC3)c3ccccc3n2)s1`, the Potency (TargetSites_Rat_Female: all tumor bearing animals) was 5.03 mg/kg/day.

`C[C@@H]1CC2(O[C@@H]2C)C(=O)O[C@@H]2CCN(C)C/C=C(/COC(=O)[C@]1(C)O)C2=O` (some centres undefined) was tested, and the Potency (TD50_Rat_Note: TD50 is harmonic mean of more than one positive test, TargetSites_Rat_Female: liver, vascular system) was 0.922 mg/kg/day.

For `O=C1NS(=O)(=O)c2ccccc21`, the Potency (TD50_Rat_Note: TD50 is harmonic mean of more than one positive test, greater than ten-fold variation among TD50 values for positive res, TargetSites_Rat_Female: no positive results) was 2140 mg/kg/day and the outcome [5] was “inactive; no positive results”.

`Clc1cc2c(cc1Cl)Oc1cc(Cl)c(Cl)cc1O2` was tested, and the Potency (TD50_Rat_Note: TD50 is harmonic mean of more than one positive test, greater than ten-fold variation among TD50 values for positive res, TargetSites_Rat_Female: liver, lung) was 2.35e-05 mg/kg/day.

`CC(C)CCC[C@@H](C)[C@H]1CC[C@H]2[C@@H]3CC=C4C[C@@H](OC(=O)Cc5ccc(N(CCCl)CCCl)cc5)CC[C@]4(C)[C@H]3CC[C@]12C` gave a Potency [6] of 0.523 mg/kg/day.

In the case of `C=C(C)C`, the Potency [1] is reported as 3550 mg/kg/day.

Work on `CCC(CC)[N+](=O)[O-]` yielded a Potency of 2.37 mg/kg/day.

In the case of `O=C1CCO1`, the Potency (TD50_Rat_Note: TD50 is harmonic mean of more than one positive test, TargetSites_Rat_Female: stomach) is reported as 1.46 mg/kg/day.

Molecule `Cc1cc(=O)n(-c2ccccc2)n1C` has a Potency of 1230 mg/kg/day.

Work on `O=C(O)c1ccc([N+](=O)[O-])cc1` yielded a Potency (TargetSites_Rat_Female: clitoral gland) of 287 mg/kg/day.

With `O.[Cd+2].[Cl-].[Cl-]` the outcome [2] was “inactive; no positive results”.

In the case of `COc1ccc(C(c2ccc(OC)cc2)C(Cl)(Cl)Cl)cc1`, the outcome [2] is reported as “inactive; no positive results”.

With `Cc1ccc2c(-c3cccc(O)c3)nc(=O)n(C(C)C)c2c1` the outcome [2] was “inactive; no positive results”.

For `Cc1cccc(C)c1N`, the outcome [5] was “inactive; no positive results”.

In the case of `CCC(Br)(CC)C(=O)NC(N)=O`, the outcome [2] is reported as “inactive; no positive results”.

With `C#CC(OC(N)=O)(c1ccccc1)c1ccc(Cl)cc1` (centres undefined) the Potency was 8.78 mg/kg/day.

With `FC(Cl)C(F)(F)F` (centres undefined) the outcome [2] was “inactive”.

`O=P1(N(CCCl)CCCl)NCCCO1` (centres undefined) showed a Potency (TD50_Rat_Note: TD50 is harmonic mean of more than one positive test, greater than ten-fold variation among TD50 values for positive res, TargetSites_Rat_Female: all tumor bearing animals, TargetSites_Rat_BothSexes: hematopoietic system, nervous system, urinary bladder) of 2.21 mg/kg/day.

In the case of `C[N+](C)(C)CCO`, the outcome [5] is reported as “inactive; no positive results”.

`O=C(O)CCl` was tested, and the outcome [2] was “inactive; no positive results”.

`CN(N=O)C(=O)c1c(N(C)N=O)ncn1C` was tested, and the Potency (TargetSites_Rat_BothSexes: stomach) was 0.183 mg/kg/day.

`O=Nc1ccc(Nc2ccccc2)cc1` gave a Potency [1] of 201 mg/kg/day.

`Cc1cc(-c2ccc(N)c(C)c2)ccc1N` was tested, and the Potency (TD50_Rat_Note: TD50 is harmonic mean of more than one positive test, TargetSites_Rat_Female: clitoral gland, ear Zymbals gland, large intestine, liver, lung, mammary gland, oral cavity, skin, small intestine) was 0.629 mg/kg/day.

For `C=CCOc1ccc(CC(=O)O)cc1Cl`, the outcome [2] was “inactive; no positive results”.

For `O=C(OOC(=O)c1ccccc1)c1ccccc1`, the outcome [4] was “inactive”.

`CCCN=[N+]([O-])CCC` gave a Potency (TD50_Rat_Note: harmonic mean of TD50 includes a value for upper 99% confidence limit from study with 100% tumor incidence but no lifeta) of 0.000241 mg/kg/day.

For `CC(C(=O)O)c1cccc(C(=O)c2ccccc2)c1` (centres undefined), the outcome [5] was “inactive; no positive results”.

With `NC1=NCN([C@@H]2O[C@H](CO)[C@@H](O)[C@H]2O)C(=O)N1` the outcome [5] was “inactive; no positive results”.

Molecule `O=C1O[C@@H](CN2CCOCC2)CN1/N=C/c1ccc([N+](=O)[O-])o1` has a Potency (TargetSites_Rat_Female: hematopoietic system, kidney, mammary gland) of 6.33 mg/kg/day.

`CC(Cl)CCl` (centres undefined) was tested, and the outcome [2] was “inactive; no positive results”.

With `Nc1nc(N)nc(-c2ccc([N+](=O)[O-])o2)n1` the Potency [6] was 1.71 mg/kg/day.

`Oc1c(Cl)cc(Cl)c(Cl)c1Cc1c(O)c(Cl)cc(Cl)c1Cl` was tested, and the outcome [2] was “inactive; no positive results”.

Work on `C=C1C/C(=C/C)C(=O)O[C@@H]2CCN3CC=C(COC(=O)[C@@]1(O)CO)[C@H]23` yielded a Potency (TD50_Rat_Note: TD50 is harmonic mean of more than one positive test, TargetSites_Rat_Female: hematopoietic system, liver, vascular system) of 0.119 mg/kg/day.

With `FC(F)(Cl)Cl` the outcome [2] was “inactive; no positive results”.

Molecule `C=CCN=C=S` has a Potency [1] of 96 mg/kg/day.

`O=[N+]([O-])c1ccc2ccc3cccc4ccc1c2c34` gave a Potency (TargetSites_Rat_Female: clitoral gland, hematopoietic system, mammary gland) of 3.33 mg/kg/day.

For `NC(Cc1c[nH]c2ccccc12)C(=O)O` (centres undefined), the outcome [5] was “inactive; no positive results”.

Molecule `CN(N=O)c1ccc(F)cc1` has a Potency of 0.255 mg/kg/day.

For `CC(C)(C)c1cc(C(C)(C)C)c(O)c(C(C)(C)C)c1`, the outcome [2] was “inactive; no positive results”.

With `CC[C@H]1CN2CCc3cc(OC)c(OC)cc3[C@@H]2C[C@@H]1C[C@H]1NCCc2cc(OC)c(OC)cc21` the outcome [3] was “ntp bioassay inadequate”.

`CC(N)=O` gave a Potency [7] of 180 mg/kg/day.

With `Clc1cc(Cl)cc(-c2cc(Cl)cc(Cl)c2)c1` the outcome [2] was “inactive”.

With `O=NN1CN2CN(C1)CN(N=O)C2` the outcome [5] was “inactive; no positive results”.

`CCCCCCCCCCN(C)N=O` gave a Potency of 1.26 mg/kg/day.

`CN(C)P(=O)(N(C)C)N(C)C` was tested, and the Potency (TD50_Rat_Note: TD50 is harmonic mean of more than one positive test, TargetSites_Rat_BothSexes: nasal cavity) was 0.0344 mg/kg/day.

With `CS(=O)(=O)OCCCCOS(C)(=O)=O` the outcome [5] was “inactive; no positive results”.

`C=Cc1cccc(C)c1` was tested, and the outcome [2] was “inactive; no positive results”.

Work on `Cc1ccc(O)c(O)c1` yielded a Potency (TD50_Rat_Note: TD50 is harmonic mean of more than one positive test, harmonic mean of TD50 includes a value for upper 99% confidence li, TargetSites_Rat_Female: stomach) of 248 mg/kg/day.

With `CC(=O)c1ccc(S(=O)(=O)NC(=O)NC2CCCCC2)cc1` the outcome [2] was “inactive; no positive results”.

With `c1ccc2[nH]c(-c3cscn3)nc2c1` the outcome [2] was “inactive; no positive results”.

With `CCC(C(=O)NC(N)=O)c1ccccc1` (centres undefined) the outcome [5] was “inactive; no positive results”.

In the case of `O=S(=O)(O)c1ccc2c(N=Nc3ccc(S(=O)(=O)O)c4ccccc34)c(O)c(S(=O)(=O)O)cc2c1`, the Potency (TD50_Rat_Note: TD50 is harmonic mean of more than one positive test, TargetSites_Rat_BothSexes: hematopoietic system) is reported as 1470 mg/kg/day.

With `ClC1=C(Cl)[C@]2(Cl)[C@@H]3[C@H]4C[C@H]([C@@H]5O[C@H]45)[C@@H]3[C@@]1(Cl)C2(Cl)Cl` the outcome [2] was “inactive; no positive results”.

In the case of `COC(=O)[C@H]1[C@H]2C[C@@H]3c4[nH]c5ccccc5c4CCN3C[C@H]2C[C@@H](OC(=O)c2cc(OC)c(OC)c(OC)c2)[C@@H]1OC`, the outcome [4] is reported as “inactive”.

Molecule `C=CCc1ccc2c(c1)OCO2` has a Potency (TD50_Rat_Note: TD50 is harmonic mean of more than one positive test, TargetSites_Rat_BothSexes: liver) of 441 mg/kg/day.

For `CC(O)C(=O)O` (centres undefined), the outcome [2] was “inactive; no positive results”.

In the case of `C=CCOC(=O)CC(C)C`, the Potency [1] is reported as 123 mg/kg/day.

Molecule `CC/C(=C(\c1ccccc1)c1ccc(OCCN(C)C)cc1)c1ccccc1` has a Potency (TD50_Rat_Note: TD50 is harmonic mean of more than one positive test, harmonic mean of TD50 includes a value for upper 99% confidence li, TargetSites_Rat_Female: liver) of 3.96 mg/kg/day.

For `Nc1c(Cl)c(Cl)nc(C(=O)O)c1Cl`, the outcome [2] was “inactive; no positive results”.

`CNC(=S)NC` was tested, and the outcome [5] was “inactive; no positive results”.

With `COc1ccc(C(=O)Nc2c(Cl)cncc2Cl)cc1OC1CCCC1` the Potency (TD50_Rat_Note: TD50 is harmonic mean of more than one positive test, TargetSites_Rat_Female: nasal cavity) was 1.54 mg/kg/day.

With `COc1ccc(CN(CCN(C)C)c2ccccn2)cc1` the Potency [7] was 280 mg/kg/day.

Molecule `O=CNNc1nc(-c2ccc([N+](=O)[O-])o2)cs1` has a Potency (TD50_Rat_Note: TD50 is harmonic mean of more than one positive test, TargetSites_Rat_Female: ear Zymbals gland, hematopoietic system, kidney, large intestine, liver, mammary gland, small intestine) of 5.06 mg/kg/day.
